Source: the Kinase Knowledgebase extract (Sharma et al. 2016)

Legend:
[1] = target: EGFR (Human), P00533 [Assessment of HCC827 (EGFR Del) Cell Proliferation]
[2] = target: EGFR (Human), P00533 [T790M/L858R]; conditions: h1975
[3] = target: EGFR (human), P00533 [WT]; conditions: a549
[4] = target: EGFR (human), P00533 [WT]; conditions: a431
[5] = target: EGFR (human), P00533 [L858R]
[6] = target: EGFR (human), P00533 [T790M]
[7] = target: EGFR (Human), P00533 [T790M/L858R]

EGFR (Human), P00533 [Assessment of HCC827 (EGFR Del) Cell Proliferation], sequence (P00533 whole entry, looked up, stated change not applied): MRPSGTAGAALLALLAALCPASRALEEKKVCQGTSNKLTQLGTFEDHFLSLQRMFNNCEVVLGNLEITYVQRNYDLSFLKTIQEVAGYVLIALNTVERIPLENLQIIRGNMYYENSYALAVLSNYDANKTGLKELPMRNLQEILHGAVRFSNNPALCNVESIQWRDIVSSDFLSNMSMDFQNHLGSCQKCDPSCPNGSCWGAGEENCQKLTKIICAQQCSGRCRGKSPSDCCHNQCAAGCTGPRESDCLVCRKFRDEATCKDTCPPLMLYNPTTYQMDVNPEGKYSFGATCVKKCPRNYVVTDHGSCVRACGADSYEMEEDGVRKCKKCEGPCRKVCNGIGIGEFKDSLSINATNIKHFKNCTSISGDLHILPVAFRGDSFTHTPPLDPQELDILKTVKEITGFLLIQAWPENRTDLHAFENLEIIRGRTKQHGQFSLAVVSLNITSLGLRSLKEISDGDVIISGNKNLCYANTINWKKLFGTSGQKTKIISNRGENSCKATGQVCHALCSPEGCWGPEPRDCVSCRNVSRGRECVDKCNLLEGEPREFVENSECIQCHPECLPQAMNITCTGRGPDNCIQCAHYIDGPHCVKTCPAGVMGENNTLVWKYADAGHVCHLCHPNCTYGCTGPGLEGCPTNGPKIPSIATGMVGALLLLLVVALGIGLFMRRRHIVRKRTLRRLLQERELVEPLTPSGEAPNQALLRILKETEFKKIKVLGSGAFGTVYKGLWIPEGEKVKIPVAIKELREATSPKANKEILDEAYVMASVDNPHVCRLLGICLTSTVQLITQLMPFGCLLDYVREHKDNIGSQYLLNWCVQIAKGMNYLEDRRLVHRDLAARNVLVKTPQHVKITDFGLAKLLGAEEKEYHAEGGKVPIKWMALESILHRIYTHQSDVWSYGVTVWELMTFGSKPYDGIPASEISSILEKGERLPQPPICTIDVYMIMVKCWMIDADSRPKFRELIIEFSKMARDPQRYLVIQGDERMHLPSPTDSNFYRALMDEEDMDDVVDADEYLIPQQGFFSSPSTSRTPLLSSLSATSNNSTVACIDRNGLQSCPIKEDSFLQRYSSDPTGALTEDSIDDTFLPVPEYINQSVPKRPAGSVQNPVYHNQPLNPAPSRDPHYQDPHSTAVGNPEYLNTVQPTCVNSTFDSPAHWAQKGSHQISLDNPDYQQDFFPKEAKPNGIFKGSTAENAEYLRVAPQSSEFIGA
EGFR (human), P00533 [WT], sequence (P00533 whole entry, looked up): as the sequence (P00533 whole entry, looked up, stated change not applied) above
EGFR (Human), P00533 [T790M/L858R], sequence (P00533 whole entry T790M/L858R, looked up): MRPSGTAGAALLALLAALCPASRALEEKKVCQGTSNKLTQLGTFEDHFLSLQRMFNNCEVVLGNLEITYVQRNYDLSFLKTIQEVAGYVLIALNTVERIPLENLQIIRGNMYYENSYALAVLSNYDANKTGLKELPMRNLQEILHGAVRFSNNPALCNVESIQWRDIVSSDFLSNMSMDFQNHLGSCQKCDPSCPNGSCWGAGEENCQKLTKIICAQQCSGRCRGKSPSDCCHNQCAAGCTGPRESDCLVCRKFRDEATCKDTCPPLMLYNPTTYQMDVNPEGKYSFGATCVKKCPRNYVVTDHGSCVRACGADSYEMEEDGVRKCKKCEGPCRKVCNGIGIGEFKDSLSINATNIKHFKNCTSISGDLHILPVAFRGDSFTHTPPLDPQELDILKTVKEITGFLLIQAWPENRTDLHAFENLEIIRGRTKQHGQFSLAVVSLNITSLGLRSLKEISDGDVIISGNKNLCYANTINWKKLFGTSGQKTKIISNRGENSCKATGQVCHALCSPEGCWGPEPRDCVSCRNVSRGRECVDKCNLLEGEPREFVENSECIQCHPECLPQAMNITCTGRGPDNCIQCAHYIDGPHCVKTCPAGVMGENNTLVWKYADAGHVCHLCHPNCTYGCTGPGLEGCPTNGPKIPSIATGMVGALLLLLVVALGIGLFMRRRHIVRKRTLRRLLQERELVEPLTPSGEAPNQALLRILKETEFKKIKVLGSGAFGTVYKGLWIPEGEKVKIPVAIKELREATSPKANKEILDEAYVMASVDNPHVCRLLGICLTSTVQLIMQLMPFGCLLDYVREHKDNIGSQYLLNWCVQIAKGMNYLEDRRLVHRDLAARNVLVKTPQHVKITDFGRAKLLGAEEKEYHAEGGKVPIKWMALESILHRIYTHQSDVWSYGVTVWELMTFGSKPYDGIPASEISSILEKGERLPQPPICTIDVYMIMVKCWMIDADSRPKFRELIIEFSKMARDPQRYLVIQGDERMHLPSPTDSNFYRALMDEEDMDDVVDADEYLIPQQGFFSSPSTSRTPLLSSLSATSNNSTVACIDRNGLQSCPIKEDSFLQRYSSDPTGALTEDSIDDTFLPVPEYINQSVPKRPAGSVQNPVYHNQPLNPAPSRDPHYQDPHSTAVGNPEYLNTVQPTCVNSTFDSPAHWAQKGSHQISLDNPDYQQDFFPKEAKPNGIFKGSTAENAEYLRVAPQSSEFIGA
EGFR (human), P00533 [T790M], sequence (P00533 whole entry T790M, looked up): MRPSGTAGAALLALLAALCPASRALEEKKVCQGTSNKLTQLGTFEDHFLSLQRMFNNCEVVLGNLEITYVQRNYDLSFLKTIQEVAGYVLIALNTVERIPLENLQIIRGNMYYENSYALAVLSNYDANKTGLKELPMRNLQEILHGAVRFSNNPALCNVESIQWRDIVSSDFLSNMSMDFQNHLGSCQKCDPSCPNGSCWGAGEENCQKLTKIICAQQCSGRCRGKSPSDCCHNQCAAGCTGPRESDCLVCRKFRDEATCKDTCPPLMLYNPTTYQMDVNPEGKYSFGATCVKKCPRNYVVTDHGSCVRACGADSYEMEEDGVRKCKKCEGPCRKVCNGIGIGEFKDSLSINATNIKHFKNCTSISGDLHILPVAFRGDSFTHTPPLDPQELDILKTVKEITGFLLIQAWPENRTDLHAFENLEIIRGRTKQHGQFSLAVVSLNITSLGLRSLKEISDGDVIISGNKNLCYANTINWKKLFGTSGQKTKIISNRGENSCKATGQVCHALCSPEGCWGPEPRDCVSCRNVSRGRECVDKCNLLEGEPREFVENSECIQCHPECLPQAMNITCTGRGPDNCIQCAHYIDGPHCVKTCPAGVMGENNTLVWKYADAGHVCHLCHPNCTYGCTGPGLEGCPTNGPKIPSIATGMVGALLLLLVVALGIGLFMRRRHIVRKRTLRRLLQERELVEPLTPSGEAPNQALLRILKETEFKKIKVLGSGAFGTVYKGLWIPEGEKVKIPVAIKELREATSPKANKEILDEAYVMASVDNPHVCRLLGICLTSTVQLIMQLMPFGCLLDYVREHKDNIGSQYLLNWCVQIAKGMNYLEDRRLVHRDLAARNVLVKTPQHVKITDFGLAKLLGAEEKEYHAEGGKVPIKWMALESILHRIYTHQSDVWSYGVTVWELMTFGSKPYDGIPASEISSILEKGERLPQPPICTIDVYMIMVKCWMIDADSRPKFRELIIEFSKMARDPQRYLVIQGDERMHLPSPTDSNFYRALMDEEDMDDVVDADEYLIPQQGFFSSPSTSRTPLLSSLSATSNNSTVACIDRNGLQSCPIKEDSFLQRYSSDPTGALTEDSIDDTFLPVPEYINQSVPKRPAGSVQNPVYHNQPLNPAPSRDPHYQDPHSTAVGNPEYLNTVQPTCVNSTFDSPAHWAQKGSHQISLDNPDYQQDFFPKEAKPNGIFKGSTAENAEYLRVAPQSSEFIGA

| SMILES | IC50 [1] [nM] | IC50 [2] [nM] | IC50 [3] [nM] | IC50 [4] [nM] | IC50 [5] [nM] | IC50 [6] [nM] | IC50 [7] [nM] |
| --- | --- | --- | --- | --- | --- | --- | --- |
| C=CC(=O)Nc1cccc(Nc2ncc(Cl)c(Nc3ccccc3C(=O)C(=O)N(C)C)n2)c1 | 70 | 10 | 640 |  |  |  |  |
| C=C(CN(C)CCN(C)C)C(=O)Nc1ccc(OC)c(Nc2ncc(Cl)c(Nc3ccccc3C(=O)C(=O)N(C)C)n2)c1 | 20 | 10 |  | 210 |  |  |  |
| C=CC(=O)Nc1cc(Nc2ncc(Cl)c(Nc3ccccc3C(=O)C(=O)NC)n2)c(F)cc1OC | 1200 | 650 |  |  |  |  |  |
| C=CC(=O)Nc1cc(Nc2ncc(Cl)c(Nc3ccccc3C(=O)C(=O)N(C)C)n2)c(OC)cc1F | 120 | 50 |  |  |  |  |  |
| CNC(=O)C(=O)c1ccccc1Nc1nc(Nc2ccc(F)c(OC)c2)ncc1Cl |  | 640 |  |  |  |  |  |
| COc1cc(N2CCN(C)CC2)ccc1Nc1ncc(Cl)c(Nc2ccccc2C(=O)C(=O)N2CCOCC2)n1 | 2360 | 1230 |  |  |  |  |  |
| COc1cc(N2CCC(N(C)C)CC2)ccc1Nc1ncc(Cl)c(Nc2ccccc2C(=O)C(=O)N2CCOCC2)n1 |  | 2860 |  |  |  |  |  |
| CNC(=O)C(=O)c1ccccc1Nc1nc(Nc2ccc(N3CCN(C)CC3)c(OC)c2)ncc1Cl | 870 | 150 | 2080 |  |  |  |  |
| C=CC(=O)Nc1cc(Nc2ncc(Cl)c(Nc3ccccc3C(=O)C(=O)NC)n2)ccc1OC | 450 | 90 |  |  |  |  |  |
| C=CC(=O)Nc1cccc(Nc2ncc(C(F)(F)F)c(Nc3ccccc3C(=O)C(N)=O)n2)c1 | 530 | 980 | 370 |  |  |  |  |
| COc1cc(Nc2ncc(Cl)c(Nc3ccccc3C(=O)C(=O)N(C)C)n2)ccc1N1CCC(N(C)C)CC1 | 20 | 10 | 1890 | 10 |  |  |  |
| COc1cc(N2CCOCC2)ccc1Nc1ncc(Cl)c(Nc2ccccc2C(=O)C(=O)N(C)C)n1 | 1940 | 1950 |  |  |  |  |  |
| C=CC(=O)Nc1ccc(OC)c(Nc2ncc(Cl)c(Nc3ccccc3C(=O)C(=O)N(CC)CC)n2)c1 | 50 | 10 |  | 750 |  |  |  |
| CNC(=O)C(=O)c1ccccc1Nc1nc(Nc2ccc(N3CCC(N(C)C)CC3)cc2OC)ncc1Cl | 900 | 1130 |  |  |  |  |  |
| COc1cc(N2CCN(C)CC2)ccc1Nc1ncc(Cl)c(Nc2ccccc2C(=O)C(=O)N(C)C)n1 | 1630 | 810 |  |  |  |  |  |
| C=CC(=O)Nc1cc(Nc2ncc(Cl)c(Nc3ccccc3C(=O)C(=O)N(C)C)n2)c(F)cc1OC | 1200 | 310 |  |  |  |  |  |
| C=CC(=O)Nc1cc(Nc2ncc(Cl)c(Nc3ccccc3C(=O)C(=O)N(C)C)n2)c(OC)cc1N1CCN(C)CC1 | 30 | 50 | 620 | 50 |  |  |  |
| C=CC(=O)Nc1cc(Nc2ncc(Cl)c(Nc3ccccc3C(=O)C(=O)N(C)C)n2)ccc1OC | 120 | 20 |  |  |  |  |  |
| COc1cc(N2CCC(N(C)C)CC2)ccc1Nc1ncc(Cl)c(Nc2ccccc2C(=O)C(=O)N(C)C)n1 | 1230 | 860 |  | 260 |  |  |  |
| C=CC(=O)Nc1ccc(OC)c(Nc2ncc(Cl)c(Nc3ccccc3C(=O)C(=O)N(C)C)n2)c1 | 20 | 20 | 1580 | 110 |  |  |  |
| C=C(CN1CCOCC1)C(=O)Nc1cccc(Nc2ncc(Cl)c(Nc3ccccc3C(=O)C(=O)N(C)C)n2)c1 | 30 | 10 | 40 | 100 |  |  |  |
| COc1cc(N2CCC(N(C)C)CC2)ccc1Nc1ncc(Cl)c(Nc2ccccc2C(=O)C(N)=O)n1 | 2630 |  |  |  | 44.3 | 7.52 | 4.08 |
| C=CC(=O)N1CCC(NC(=O)C(=O)c2ccccc2Nc2nc(Nc3ccc(F)c(OC)c3)ncc2Cl)CC1 |  | 190 |  |  |  |  |  |
| COc1cc(Nc2ncc(Cl)c(Nc3ccccc3C(=O)C(=O)N(C)C)n2)ccc1F | 2330 |  |  |  |  |  |  |
| C/C=C/C(=O)Nc1ccc(OC)c(Nc2ncc(Cl)c(Nc3ccccc3C(=O)C(=O)N(C)C)n2)c1 | 1050 | 310 | 1370 |  |  |  |  |
| C=CC(=O)Nc1cccc(Nc2ncc(Cl)c(Nc3ccccc3C(=O)C(=O)NC)n2)c1 | 270 | 100 |  |  |  |  |  |
| COc1cc(N2CCC(N(C)C)CC2)ccc1Nc1ncc(Cl)c(Nc2ccccc2C(=O)C(=O)NO)n1 | 940 | 840 |  |  |  |  |  |
| COc1cc(N2CCN(C(C)=O)CC2)ccc1Nc1ncc(Cl)c(Nc2ccccc2C(=O)C(=O)N(C)C)n1 | 540 | 210 |  | 50 |  |  |  |
